Test results as given in US12304891B2, “Removal of Al-salts, HCl, NaCl and organic by-product from DIOPAT suspension by means of ceramic membranes in strong acidic conditions at high temperature” (BASF SE, priority 2018, dated 2025).

Format: physicochemical
Procedure: The temperature was adjusted to 90° C. The 2,4-DHBP concentration in the feed DIOPAT suspension of the diafiltration was about 0.32%. […] Thus, some 2,4-DHBP probably was already precipitated and had to be brought back into solution during the DF process. In the DF process, the DIOPAT suspension was held at 90° C. and was permanently washed with 12 kg fresh water. During the washing process, the DIOPAT concentration stayed constant. To separate the Al-salts and organic by-products, the DIOPAT suspension was pumped from the feed vessel to a ceramic membrane module and from there back to the feed vessel. In the ceramic membrane, the dissolved components (Al-salts and some org. components such as 2,4-DHBP) passed through the membrane. The DIOPAT particles stayed in the suspension and went back to the feed vessel. The permeate was send to the waste water treatment plant. In total, the suspension at the beginning of the membrane process (suspension after precipitation) was washed with a washing factor of 4.5. Then, the Al-salt concentration in the retentate was less than approx. 65 ppm.

In the case of `O=C(c1ccccc1)c1ccc(O)cc1O` [2,4-DHBP, 2,4-dihydroxybenzophenone], the “solubility in acidic water” value is reported as “about 0.18%”.
